{
  "source": "BigSolDB 2.1",
  "data": [
    {"smiles": "Cc1cnc(NC(=O)C2=C(O)c3ccccc3S(=O)(=O)N2C)s1", "values": [
      {"measurement": "solubility (mole fraction)", "setting": "in DMF, 293.15 K", "result": 0.0117},
      {"measurement": "solubility (mole fraction)", "setting": "in DMF, 298.15 K", "result": 0.0128},
      {"measurement": "solubility (mole fraction)", "setting": "in DMF, 303.15 K", "result": 0.0139},
      {"measurement": "solubility (mole fraction)", "setting": "in DMF, 308.15 K", "result": 0.0153},
      {"measurement": "solubility (mole fraction)", "setting": "in DMF, 313.15 K", "result": 0.0163},
      {"measurement": "solubility (mole fraction)", "setting": "in formamide, 293.15 K", "result": 0.00069},
      {"measurement": "solubility (mole fraction)", "setting": "in formamide, 298.15 K", "result": 0.000749},
      {"measurement": "solubility (mole fraction)", "setting": "in formamide, 303.15 K", "result": 0.000802},
      {"measurement": "solubility (mole fraction)", "setting": "in formamide, 308.15 K", "result": 0.000872},
      {"measurement": "solubility (mole fraction)", "setting": "in formamide, 313.15 K", "result": 0.000927},
      {"measurement": "solubility (mole fraction)", "setting": "in n-methylformamide, 293.15 K", "result": 0.00149},
      {"measurement": "solubility (mole fraction)", "setting": "in n-methylformamide, 298.15 K", "result": 0.00159},
      {"measurement": "solubility (mole fraction)", "setting": "in n-methylformamide, 303.15 K", "result": 0.00169},
      {"measurement": "solubility (mole fraction)", "setting": "in n-methylformamide, 308.15 K", "result": 0.00182},
      {"measurement": "solubility (mole fraction)", "setting": "in n-methylformamide, 313.15 K", "result": 0.00191}
    ]}
  ]
}
